pIC50: −log10 of the molar value.
Key:
SK-MEL-28 = test: cells; settings: Homo sapiens, SK-MEL-28, 48 h, read-out: LC50
Description: Cytotoxicity activity against human SK-MEL-28 cells assessed as reduction in cell growth measured after 48 hrs by sulforhodamine B assay

HL-60(TB) [1] = test: cells; assay type: functional; settings: Homo sapiens, time 48 hrs
Description: Cytostatic activity against human HL-60(TB) cells assessed as total growth inhibition measured after 48 hrs by sulforhodamine B assay

HCT-116 = test: cells; assay type: functional; settings: Homo sapiens, time 48 hrs
Description: Growth inhibition of human HCT-116 cells measured after 48 hrs by sulforhodamine B assay

OVCAR-8 [2] = test: cells; settings: Homo sapiens, OVCAR-8, 48 h, read-out: LC50
Description: Cytotoxicity activity against human OVCAR-8 cells assessed as reduction in cell growth measured after 48 hrs by sulforhodamine B assay

MDA-MB-468 = test: cells; settings: Homo sapiens, MDA-MB-468, 48 h, read-out: LC50
Description: Cytotoxicity activity against human MDA-MB-468 cells assessed as reduction in cell growth measured after 48 hrs by sulforhodamine B assay

BT-549 = test: cells; assay type: functional; settings: Homo sapiens, time 48 hrs
Description: Cytostatic activity against human BT-549 cells assessed as total growth inhibition measured after 48 hrs by sulforhodamine B assay

786-0 [3] = test: cells; settings: Homo sapiens, 786-0, 48 h, read-out: LC50
Description: Cytotoxicity activity against human 786-0 cells assessed as reduction in cell growth measured after 48 hrs by sulforhodamine B assay

786-0 [4] = test: cells; assay type: functional; settings: Homo sapiens, time 48 hrs
Description: Cytostatic activity against human 786-0 cells assessed as total growth inhibition measured after 48 hrs by sulforhodamine B assay

MDA-MB-435 [5] = test: cells; settings: Homo sapiens, MDA-MB-435, 48 h, read-out: LC50
Description: Cytotoxicity activity against human MDA-MB-435 cells assessed as reduction in cell growth measured after 48 hrs by sulforhodamine B assay

HCT-15 = test: cells; assay type: functional; settings: Homo sapiens, time 48 hrs
Description: Cytostatic activity against human HCT-15 cells assessed as total growth inhibition measured after 48 hrs by sulforhodamine B assay

MOLT-4 [6] = test: cells; assay type: functional; settings: Homo sapiens, time 48 hrs
Description: Cytostatic activity against human MOLT-4 cells assessed as total growth inhibition measured after 48 hrs by sulforhodamine B assay

DU-145 = test: cells; assay type: functional; settings: Homo sapiens, time 48 hrs
Description: Cytostatic activity against human DU-145 cells assessed as total growth inhibition measured after 48 hrs by sulforhodamine B assay

HOP-92 [7] = test: cells; assay type: functional; settings: Homo sapiens, time 48 hrs
Description: Growth inhibition of human HOP-92 cells measured after 48 hrs by sulforhodamine B assay

HT-29 = test: cells; assay type: functional; settings: Homo sapiens, time 48 hrs
Description: Growth inhibition of human HT-29 cells measured after 48 hrs by sulforhodamine B assay

EKVX [8] = test: cells; settings: Homo sapiens, 48 h, read-out: LC50
Description: Cytotoxicity activity against human EKVX cells assessed as reduction in cell growth measured after 48 hrs by sulforhodamine B assay

ACHN [9] = test: cells; assay type: functional; settings: Homo sapiens, time 48 hrs
Description: Growth inhibition of human ACHN cells measured after 48 hrs by sulforhodamine B assay

RXF 393 = test: cells; assay type: functional; settings: Homo sapiens, time 48 hrs
Description: Cytostatic activity against human RXF 393 cells assessed as total growth inhibition measured after 48 hrs by sulforhodamine B assay

M14 = test: cells; assay type: functional; settings: Homo sapiens, time 48 hrs
Description: Cytostatic activity against human M14 cells assessed as total growth inhibition measured after 48 hrs by sulforhodamine B assay

CAKI-1 [10] = test: cells; assay type: functional; settings: Homo sapiens, time 48 hrs
Description: Cytostatic activity against human CAKI-1 cells assessed as total growth inhibition measured after 48 hrs by sulforhodamine B assay

MDA-MB-435 [11] = test: cells; assay type: functional; settings: Homo sapiens, time 48 hrs
Description: Growth inhibition of human MDA-MB-435 cells measured after 48 hrs by sulforhodamine B assay

MOLT-4 [12] = test: cells; assay type: functional; settings: Homo sapiens, time 48 hrs; remark: listed apart in the source
Description: Growth inhibition of human MOLT-4 cells measured after 48 hrs by sulforhodamine B assay

SF-268 [13] = test: cells; assay type: functional; settings: Homo sapiens, time 48 hrs
Description: Growth inhibition of human SF-268 cells measured after 48 hrs by sulforhodamine B assay

SK-MEL-2 [14] = test: cells; assay type: functional; settings: Homo sapiens, time 48 hrs
Description: Growth inhibition of human SK-MEL-2 cells measured after 48 hrs by sulforhodamine B assay

SNB-19 [15] = test: cells; assay type: functional; settings: Homo sapiens, time 48 hrs
Description: Growth inhibition of human SNB-19 cells measured after 48 hrs by sulforhodamine B assay

OVCAR-3 = test: cells; assay type: functional; settings: Homo sapiens, time 48 hrs
Description: Growth inhibition of human OVCAR-3 cells measured after 48 hrs by sulforhodamine B assay

HOP-92 [16] = test: cells; assay type: functional; settings: Homo sapiens, time 48 hrs; remark: listed apart in the source
Description: Cytostatic activity against human HOP-92 cells assessed as total growth inhibition measured after 48 hrs by sulforhodamine B assay

786-0 [17] = test: cells; assay type: functional; settings: Homo sapiens, time 48 hrs; remark: listed apart in the source
Description: Growth inhibition of human 786-0 cells measured after 48 hrs by sulforhodamine B assay

HL-60(TB) [18] = test: cells; settings: Homo sapiens, HL-60, 48 h, read-out: LC50
Description: Cytotoxicity activity against human HL-60(TB) cells assessed as reduction in cell growth measured after 48 hrs by sulforhodamine B assay

SNB-75 = test: cells; settings: Homo sapiens, SNB-75, 48 h, read-out: LC50
Description: Cytotoxicity activity against human SNB-75 cells assessed as reduction in cell growth measured after 48 hrs by sulforhodamine B assay

UACC-257 = test: cells; settings: Homo sapiens, UACC-257, 48 h, read-out: LC50
Description: Cytotoxicity activity against human UACC-257 cells assessed as reduction in cell growth measured after 48 hrs by sulforhodamine B assay

NCI-H23 = test: cells; settings: Homo sapiens, NCI-H23, 48 h, read-out: LC50
Description: Cytotoxicity activity against human NCI-H23 cells assessed as reduction in cell growth measured after 48 hrs by sulforhodamine B assay

COLO 205 [19] = test: cells; assay type: functional; settings: Homo sapiens, time 48 hrs
Description: Growth inhibition of human COLO 205 cells measured after 48 hrs by sulforhodamine B assay

UO-31 [20] = test: cells; settings: Homo sapiens, UO-31, 48 h, read-out: LC50
Description: Cytotoxicity activity against human UO-31 cells assessed as reduction in cell growth measured after 48 hrs by sulforhodamine B assay

SK-MEL-2 [21] = test: cells; settings: Homo sapiens, SK-MEL-2, 48 h, read-out: LC50
Description: Cytotoxicity activity against human SK-MEL-2 cells assessed as reduction in cell growth measured after 48 hrs by sulforhodamine B assay

A498 = test: cells; settings: Homo sapiens, A498, 48 h, read-out: LC50
Description: Cytotoxicity activity against human A498 cells assessed as reduction in cell growth measured after 48 hrs by sulforhodamine B assay

OVCAR-5 = test: cells; assay type: functional; settings: Homo sapiens, time 48 hrs
Description: Growth inhibition of human OVCAR-5 cells measured after 48 hrs by sulforhodamine B assay

A549 = test: cells; settings: Homo sapiens, A549, 48 h, read-out: LC50
Description: Cytotoxicity activity against human A549 cells assessed as reduction in cell growth measured after 48 hrs by sulforhodamine B assay

UACC-62 = test: cells; assay type: functional; settings: Homo sapiens, time 48 hrs
Description: Growth inhibition of human UACC-62 cells measured after 48 hrs by sulforhodamine B assay

NCI-H460 = test: cells; assay type: functional; settings: Homo sapiens, time 48 hrs
Description: Growth inhibition of human NCI-H460 cells measured after 48 hrs by sulforhodamine B assay

OVCAR-8 [22] = test: cells; assay type: functional; settings: Homo sapiens, time 48 hrs
Description: Cytostatic activity against human OVCAR-8 cells assessed as total growth inhibition measured after 48 hrs by sulforhodamine B assay

EKVX [23] = test: cells; assay type: functional; settings: Homo sapiens, time 48 hrs
Description: Cytostatic activity against human EKVX cells assessed as total growth inhibition measured after 48 hrs by sulforhodamine B assay

COLO 205 [24] = test: cells; assay type: functional; settings: Homo sapiens, time 48 hrs; remark: listed apart in the source
Description: Cytostatic activity against human COLO 205 cells assessed as total growth inhibition measured after 48 hrs by sulforhodamine B assay

SN12C = test: cells; settings: Homo sapiens, 48 h, read-out: LC50
Description: Cytotoxicity activity against human SN12C cells assessed as reduction in cell growth measured after 48 hrs by sulforhodamine B assay

NCI-H322M [25] = test: cells; settings: Homo sapiens, 48 h, read-out: LC50
Description: Cytotoxicity activity against human NCI-H322M cells assessed as reduction in cell growth measured after 48 hrs by sulforhodamine B assay

SF-268 [26] = test: cells; settings: Homo sapiens, SF-268, 48 h, read-out: LC50
Description: Cytotoxicity activity against human SF-268 cells assessed as reduction in cell growth measured after 48 hrs by sulforhodamine B assay

RPMI-8226 = test: cells; assay type: functional; settings: Homo sapiens, time 48 hrs
Description: Cytostatic activity against human RPMI-8226 cells assessed as total growth inhibition measured after 48 hrs by sulforhodamine B assay

OVCAR-4 = test: cells; settings: Homo sapiens, OVCAR-4, 48 h, read-out: LC50
Description: Cytotoxicity activity against human OVCAR-4 cells assessed as reduction in cell growth measured after 48 hrs by sulforhodamine B assay

HOP-62 = test: cells; assay type: functional; settings: Homo sapiens, time 48 hrs
Description: Growth inhibition of human HOP-62 cells measured after 48 hrs by sulforhodamine B assay

IGROV-1 = test: cells; settings: Homo sapiens, IGROV-1, 48 h, read-out: LC50
Description: Cytotoxicity activity against human IGROV-1 cells assessed as reduction in cell growth measured after 48 hrs by sulforhodamine B assay

ACHN [27] = test: cells; settings: Homo sapiens, 48 h, read-out: LC50
Description: Cytotoxicity activity against human ACHN cells assessed as reduction in cell growth measured after 48 hrs by sulforhodamine B assay

CAKI-1 [28] = test: cells; assay type: functional; settings: Homo sapiens, time 48 hrs; remark: listed apart in the source
Description: Growth inhibition of human CAKI-1 cells measured after 48 hrs by sulforhodamine B assay

NCI-H322M [29] = test: cells; assay type: functional; settings: Homo sapiens, time 48 hrs
Description: Cytostatic activity against human NCI-H322M cells assessed as total growth inhibition measured after 48 hrs by sulforhodamine B assay

SK-OV-3 = test: cells; assay type: functional; settings: Homo sapiens, time 48 hrs
Description: Growth inhibition of human SK-OV-3 cells measured after 48 hrs by sulforhodamine B assay

U-251 = test: cells; assay type: functional; settings: Homo sapiens, time 48 hrs
Description: Cytostatic activity against human U-251 cells assessed as total growth inhibition measured after 48 hrs by sulforhodamine B assay

MCF7 = test: cells; assay type: functional; settings: Homo sapiens, time 48 hrs
Description: Cytostatic activity against human MCF7 cells assessed as total growth inhibition measured after 48 hrs by sulforhodamine B assay

SNB-19 [30] = test: cells; settings: Homo sapiens, SNB-19, 48 h, read-out: LC50
Description: Cytotoxicity activity against human SNB-19 cells assessed as reduction in cell growth measured after 48 hrs by sulforhodamine B assay

HOP-92 [31] = test: cells; settings: Homo sapiens, HOP-92, 48 h, read-out: LC50
Description: Cytotoxicity activity against human HOP-92 cells assessed as reduction in cell growth measured after 48 hrs by sulforhodamine B assay

Carbonic anhydrase 12 = Carbonic anhydrase 12 (Homo sapiens, UniProt O43570)
Chain of Carbonic anhydrase 12 (O43570 whole entry): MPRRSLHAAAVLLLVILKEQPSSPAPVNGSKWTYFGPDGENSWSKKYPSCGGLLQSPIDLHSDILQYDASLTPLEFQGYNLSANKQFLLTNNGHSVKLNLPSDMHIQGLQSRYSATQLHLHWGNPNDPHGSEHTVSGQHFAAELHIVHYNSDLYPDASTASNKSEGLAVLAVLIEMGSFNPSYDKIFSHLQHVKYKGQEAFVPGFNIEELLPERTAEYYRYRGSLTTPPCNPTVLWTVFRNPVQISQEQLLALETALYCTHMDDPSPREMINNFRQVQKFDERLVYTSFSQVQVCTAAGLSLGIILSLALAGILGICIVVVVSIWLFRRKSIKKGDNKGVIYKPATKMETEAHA
Description: Inhibition of human carbonic anhydrase 12 preincubated for 15 mins followed by substrate addition and measured after 30 mins by spectrophotometric method

PC-3 = test: cells; settings: Homo sapiens, PC-3, 48 h, read-out: LC50
Description: Cytotoxicity activity against human PC-3 cells assessed as reduction in cell growth measured after 48 hrs by sulforhodamine B assay

UO-31 [32] = test: cells; assay type: functional; settings: Homo sapiens, time 48 hrs
Description: Growth inhibition of human UO-31 cells measured after 48 hrs by sulforhodamine B assay

SMILES: CCOC(=O)c1ccc(N/N=C/c2cn(-c3ccc(S(N)(=O)=O)cc3)nc2-c2ccc(C)cc2)cc1
- CC50 (SK-MEL-28): 65.8 µM
- TGI (HL-60(TB) [1]): 14.1 µM
- GI50 (HCT-116): 3.11 µM
- CC50 (OVCAR-8 [2]): > 100 µM
- CC50 (MDA-MB-468): 99.3 µM
- TGI (BT-549): 40.6 µM
- CC50 (786-0 [3]): 68 µM
- TGI (786-0 [4]): 5.74 µM
- CC50 (MDA-MB-435 [5]): 70.2 µM
- TGI (HCT-15): 4.23 µM
- TGI (MOLT-4 [6]): 11.5 µM
- TGI (DU-145): 24.4 µM
- GI50 (HOP-92 [7]): 2.79 µM
- GI50 (HT-29): 2.97 µM
- CC50 (EKVX [8]): > 100 µM
- GI50 (ACHN [9]): 3.04 µM
- TGI (RXF 393): 4.19 µM
- TGI (M14): 3.57 µM
- TGI (CAKI-1 [10]): 11.7 µM
- GI50 (MDA-MB-435 [11]): 2.87 µM
- GI50 (MOLT-4 [12]): 2.87 µM
- GI50 (SF-268 [13]): 4.07 µM
- GI50 (SK-MEL-2 [14]): 11.8 µM
- GI50 (SNB-19 [15]): 4.1 µM
- GI50 (OVCAR-3): 2.57 µM
- TGI (HOP-92 [16]): 2.79 µM
- GI50 (786-0 [17]): 2.42 µM
- CC50 (HL-60(TB) [18]): > 100 µM
- CC50 (SNB-75): > 100 µM
- CC50 (UACC-257): > 100 µM
- CC50 (NCI-H23): 94.5 µM
- GI50 (COLO 205 [19]): 11.2 µM
- CC50 (UO-31 [20]): > 100 µM
- CC50 (SK-MEL-2 [21]): > 100 µM
- CC50 (A498): > 100 µM
- GI50 (OVCAR-5): 4.29 µM
- CC50 (A549): > 100 µM
- GI50 (UACC-62): 5.66 µM
- GI50 (NCI-H460): 2.43 µM
- TGI (OVCAR-8 [22]): > 100 µM
- TGI (EKVX [23]): 3.17 µM
- TGI (COLO 205 [24]): 44.3 µM
- CC50 (SN12C): > 100 µM
- CC50 (NCI-H322M [25]): > 100 µM
- CC50 (SF-268 [26]): > 100 µM
- TGI (RPMI-8226): 3.24 µM
- CC50 (OVCAR-4): > 100 µM
- GI50 (HOP-62): 6.55 µM
- CC50 (IGROV-1): > 100 µM
- CC50 (ACHN [27]): > 100 µM
- GI50 (CAKI-1 [28]): 2.07 µM
- TGI (NCI-H322M [29]): 5.38 µM
- GI50 (SK-OV-3): 24.4 µM
- TGI (U-251): > 100 µM
- TGI (MCF7): 7.77 µM
- CC50 (SNB-19 [30]): > 100 µM
- CC50 (HOP-92 [31]): > 100 µM
- pIC50 (Carbonic anhydrase 12): 6.81
- CC50 (PC-3): > 100 µM
- GI50 (UO-31 [32]): 2.71 µM

Reference: ChEMBL document CHEMBL5634115, “Exploring novel anticancer pyrazole benzenesulfonamides featuring tail approach strategy as carbonic anhydrase inhibitors” (Eur J Med Chem, 2023)
